Experimental data from ChEMBL document CHEMBL4376834, “Discovery of 4H-Chromen-4-one Derivatives as a New Class of Selective Rho Kinase (ROCK) Inhibitors, which Showed Potent Activity in ex Vivo Diabetic Retinopathy Models” (J Med Chem, 2019).

Key:
Ephrin type-A receptor 1 = Ephrin type-A receptor 1 (Homo sapiens, UniProt P21709); experiment: Inhibition of recombinant human EphA1 (568 to end residues) using KKKSPGEYVNIEF as substrate after 40 mins in presence of [gamma-33ATP] by radiometric scintillation counting analysis
Chain of Ephrin type-A receptor 1 (P21709 whole entry): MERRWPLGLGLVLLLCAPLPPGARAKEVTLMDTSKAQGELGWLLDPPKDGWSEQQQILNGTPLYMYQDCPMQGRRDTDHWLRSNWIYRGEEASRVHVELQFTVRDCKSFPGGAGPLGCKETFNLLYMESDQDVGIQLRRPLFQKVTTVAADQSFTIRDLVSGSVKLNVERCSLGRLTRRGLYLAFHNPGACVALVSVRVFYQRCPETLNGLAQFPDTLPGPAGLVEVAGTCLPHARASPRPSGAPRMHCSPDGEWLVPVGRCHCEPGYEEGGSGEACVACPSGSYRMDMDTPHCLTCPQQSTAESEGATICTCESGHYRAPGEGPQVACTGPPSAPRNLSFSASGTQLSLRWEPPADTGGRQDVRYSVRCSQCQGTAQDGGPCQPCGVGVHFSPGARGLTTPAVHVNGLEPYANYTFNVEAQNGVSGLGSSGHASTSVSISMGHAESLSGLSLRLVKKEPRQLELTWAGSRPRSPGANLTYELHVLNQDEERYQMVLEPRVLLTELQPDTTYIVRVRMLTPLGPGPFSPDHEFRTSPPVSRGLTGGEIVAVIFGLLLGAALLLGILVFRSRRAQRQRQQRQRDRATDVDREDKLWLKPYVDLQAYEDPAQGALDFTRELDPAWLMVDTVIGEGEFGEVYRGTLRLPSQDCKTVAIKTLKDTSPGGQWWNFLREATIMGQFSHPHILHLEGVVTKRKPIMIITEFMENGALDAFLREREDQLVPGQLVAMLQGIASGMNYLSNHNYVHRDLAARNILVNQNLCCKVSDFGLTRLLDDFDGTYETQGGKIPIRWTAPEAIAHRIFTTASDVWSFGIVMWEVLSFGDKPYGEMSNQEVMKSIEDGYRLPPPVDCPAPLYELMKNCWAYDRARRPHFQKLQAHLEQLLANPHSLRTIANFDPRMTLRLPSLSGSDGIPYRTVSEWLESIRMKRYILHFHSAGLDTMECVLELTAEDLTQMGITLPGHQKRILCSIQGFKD

[1] = target: Cyclin-dependent kinase 1/cyclin B1 (Homo sapiens, UniProt P06493); experiment: Inhibition of recombinant full length human CDK1/CyclinB using Histone H1 as substrate incubated for 40 mins in presence of [gamma-33ATP] by radiometric scintillation counting analysis; assay type: protein-complex assay
Ephrin type-B receptor 4 = Ephrin type-B receptor 4 (Homo sapiens, UniProt P54760); experiment: Inhibition of recombinant human EphB4 (561 to end residues) using poly(Glu, Tyr) 4:1 as substrate after 40 mins in presence of [gamma-33ATP] by radiometric scintillation counting analysis
[2] = target: Serine-protein kinase ATM (Homo sapiens, UniProt Q13315); experiment: Inhibition of recombinant full-length human ATM using GST-cMyc-p53 as substrate measured after 40 mins by ELISA
[3] = target: Platelet-derived growth factor receptor beta (Homo sapiens, UniProt P09619); experiment: Inhibition of human PDGFRbeta (557 to end residues) using poly(Glu, Tyr) 4:1 as substrate measured after 40 mins in presence of [gamma33P]ATP by radiometric scintillation counting analysis
[4] = target: Mitogen-activated protein kinase 14 (Homo sapiens, UniProt Q16539, T106M); experiment: Inhibition of recombinant human full length SAPK2a T106M mutant using myelin basic protein as substrate incubated for 40 mins in presence of [gamma33P]ATP by radiometric scintillation counting analysis
Insulin receptor = Insulin receptor (Homo sapiens, UniProt P06213); experiment: Inhibition of human recombinant IR (1005 to 1310 residues) using KKSRGDYMTMQIG as substrate after 40 mins by [gamma-33ATP] by radiometric scintillation counting analysis
[5] = target: Cyclin-dependent kinase 5/CDK5 activator 1 (Homo sapiens, UniProt Q00535); experiment: Inhibition of recombinant full length human CDK5/p35 using histone H1 as substrate incubated for 40 mins in presence of [gamma-33ATP] by radiometric scintillation counting analysis; assay type: protein-complex assay
Chain of Cyclin-dependent kinase 5/CDK5 activator 1 (Q00535 whole entry): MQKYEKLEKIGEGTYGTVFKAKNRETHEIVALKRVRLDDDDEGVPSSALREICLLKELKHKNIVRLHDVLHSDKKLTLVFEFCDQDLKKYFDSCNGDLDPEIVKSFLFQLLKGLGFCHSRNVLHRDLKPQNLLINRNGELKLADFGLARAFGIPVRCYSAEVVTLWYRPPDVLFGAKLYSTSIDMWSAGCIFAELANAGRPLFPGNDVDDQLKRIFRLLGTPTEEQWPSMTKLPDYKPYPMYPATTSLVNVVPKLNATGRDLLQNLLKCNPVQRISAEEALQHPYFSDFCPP
Chain of Cyclin-dependent kinase 5/CDK5 activator 1 (Q15078 whole entry, further chain): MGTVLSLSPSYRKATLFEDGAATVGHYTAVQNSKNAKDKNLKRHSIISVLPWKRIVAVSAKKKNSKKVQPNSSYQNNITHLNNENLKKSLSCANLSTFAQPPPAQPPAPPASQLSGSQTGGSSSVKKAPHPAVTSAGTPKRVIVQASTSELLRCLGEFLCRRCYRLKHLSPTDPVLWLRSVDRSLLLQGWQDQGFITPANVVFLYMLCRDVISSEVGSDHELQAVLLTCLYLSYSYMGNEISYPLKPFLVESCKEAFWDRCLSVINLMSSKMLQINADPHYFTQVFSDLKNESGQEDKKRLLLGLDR

[6] = target: Epidermal growth factor receptor (Homo sapiens, UniProt P00533, L861Q); experiment: Inhibition of recombinant human EGFR L861Q mutant (696 to end residues) using poly(Glu, Tyr) 4:1 as substrate after 40 mins in presence of [gamma-33ATP] by radiometric scintillation counting analysis
[7] = target: Serine/threonine-protein kinase tousled-like 1 (Homo sapiens, UniProt Q9UKI8); experiment: Inhibition of recombinant full-length human TLK1 using casein as substrate incubated for 40 mins in presence of [gamma33P]ATP by radiometric scintillation counting analysis
Chain of Serine/threonine-protein kinase tousled-like 1 (Q9UKI8 whole entry): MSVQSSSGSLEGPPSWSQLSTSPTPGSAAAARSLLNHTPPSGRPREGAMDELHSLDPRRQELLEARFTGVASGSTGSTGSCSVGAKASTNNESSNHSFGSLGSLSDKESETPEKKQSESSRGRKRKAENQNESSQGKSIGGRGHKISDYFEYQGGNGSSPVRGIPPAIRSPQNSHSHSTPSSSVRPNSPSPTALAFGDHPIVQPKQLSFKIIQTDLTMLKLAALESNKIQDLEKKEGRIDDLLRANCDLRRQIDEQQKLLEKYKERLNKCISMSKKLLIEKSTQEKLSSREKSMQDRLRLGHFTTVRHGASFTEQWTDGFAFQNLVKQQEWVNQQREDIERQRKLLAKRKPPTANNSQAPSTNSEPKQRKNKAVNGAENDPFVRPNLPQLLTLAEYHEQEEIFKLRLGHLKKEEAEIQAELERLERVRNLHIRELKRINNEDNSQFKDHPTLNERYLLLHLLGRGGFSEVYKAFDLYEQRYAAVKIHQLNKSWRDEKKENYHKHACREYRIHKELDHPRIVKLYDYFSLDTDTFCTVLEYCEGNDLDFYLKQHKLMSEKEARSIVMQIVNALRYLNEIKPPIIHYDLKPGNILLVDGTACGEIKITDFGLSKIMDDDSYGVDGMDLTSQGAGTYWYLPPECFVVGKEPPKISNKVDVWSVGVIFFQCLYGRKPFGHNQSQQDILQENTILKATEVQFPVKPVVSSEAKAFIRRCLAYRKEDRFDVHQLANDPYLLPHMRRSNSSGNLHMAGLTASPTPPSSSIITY

[8] = target: Serine/threonine-protein kinase A-Raf (Homo sapiens, UniProt P10398); experiment: Inhibition of human recombinant A-Raf (273 to end residues) using myelin as substrate incubated for 40 mins in presence of [gamma-33ATP] by radiometric scintillation counting analysis
Chain of Serine/threonine-protein kinase A-Raf (P10398 whole entry, the tested form may be a part): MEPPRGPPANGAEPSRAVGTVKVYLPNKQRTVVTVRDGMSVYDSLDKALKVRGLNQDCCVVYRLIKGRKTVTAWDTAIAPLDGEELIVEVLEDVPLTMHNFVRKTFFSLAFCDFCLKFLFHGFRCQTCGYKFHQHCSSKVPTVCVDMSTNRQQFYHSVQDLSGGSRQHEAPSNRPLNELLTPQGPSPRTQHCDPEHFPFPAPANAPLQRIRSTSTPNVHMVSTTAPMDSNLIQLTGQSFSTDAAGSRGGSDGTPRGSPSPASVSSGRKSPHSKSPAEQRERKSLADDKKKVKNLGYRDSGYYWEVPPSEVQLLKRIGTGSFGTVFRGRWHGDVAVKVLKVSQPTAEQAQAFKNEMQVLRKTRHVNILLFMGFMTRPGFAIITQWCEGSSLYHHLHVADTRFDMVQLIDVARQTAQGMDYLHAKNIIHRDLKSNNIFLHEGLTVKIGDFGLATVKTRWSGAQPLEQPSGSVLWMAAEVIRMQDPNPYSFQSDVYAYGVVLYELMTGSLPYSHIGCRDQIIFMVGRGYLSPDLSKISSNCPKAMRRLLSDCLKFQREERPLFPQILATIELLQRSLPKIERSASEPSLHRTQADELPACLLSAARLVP

[9] = target: Ribosomal protein S6 kinase beta-1 (Homo sapiens, UniProt P23443, T412E); experiment: Inhibition of recombinant human p70S6K T412E mutant (1 to 421 residues) using KKRNRTLTV as substrate measured after 40 mins in presence of [gamma33P]ATP by radiometric scintillation counting analysis
Ephrin type-A receptor 5 = Ephrin type-A receptor 5 (Homo sapiens, UniProt P54756); experiment: Inhibition of recombinant human EphA5 (655 to 956 residues) using poly(Glu, Tyr) 4:1 as substrate measured after 40 mins in presence of [gamma33ATP] by radiometric scintillation counting analysis
Chain of Ephrin type-A receptor 5 (P54756 whole entry, the tested form may be a part): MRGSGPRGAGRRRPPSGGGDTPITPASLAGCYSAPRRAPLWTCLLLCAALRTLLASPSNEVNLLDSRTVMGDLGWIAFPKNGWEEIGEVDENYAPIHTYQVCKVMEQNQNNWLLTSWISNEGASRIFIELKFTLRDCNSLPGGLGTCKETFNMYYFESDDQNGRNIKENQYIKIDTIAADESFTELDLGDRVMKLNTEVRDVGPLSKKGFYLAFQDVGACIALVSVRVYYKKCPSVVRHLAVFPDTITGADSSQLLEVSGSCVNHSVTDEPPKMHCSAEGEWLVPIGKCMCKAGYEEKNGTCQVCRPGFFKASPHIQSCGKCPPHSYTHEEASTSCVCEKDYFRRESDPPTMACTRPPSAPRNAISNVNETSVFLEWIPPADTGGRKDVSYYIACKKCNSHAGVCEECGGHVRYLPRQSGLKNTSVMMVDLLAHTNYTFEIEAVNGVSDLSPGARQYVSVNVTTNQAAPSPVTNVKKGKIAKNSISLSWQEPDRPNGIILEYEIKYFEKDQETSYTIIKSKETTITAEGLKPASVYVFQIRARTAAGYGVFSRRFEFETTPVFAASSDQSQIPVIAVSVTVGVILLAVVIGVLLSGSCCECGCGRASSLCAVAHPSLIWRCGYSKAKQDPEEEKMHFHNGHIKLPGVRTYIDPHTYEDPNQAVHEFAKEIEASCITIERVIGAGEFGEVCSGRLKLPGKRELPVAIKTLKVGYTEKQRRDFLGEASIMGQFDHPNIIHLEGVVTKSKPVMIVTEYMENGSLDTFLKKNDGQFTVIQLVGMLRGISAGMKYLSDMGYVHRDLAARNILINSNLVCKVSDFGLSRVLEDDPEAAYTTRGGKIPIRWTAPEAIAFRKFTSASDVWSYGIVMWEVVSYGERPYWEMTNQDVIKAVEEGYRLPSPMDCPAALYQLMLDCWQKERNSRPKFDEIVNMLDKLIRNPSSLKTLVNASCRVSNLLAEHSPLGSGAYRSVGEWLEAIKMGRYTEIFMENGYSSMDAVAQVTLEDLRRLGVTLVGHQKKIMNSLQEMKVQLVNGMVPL

LIM domain kinase 2 = LIM domain kinase 2 (Homo sapiens, UniProt P53671); experiment: Inhibition of human LIMK2 in presence of 10 uM of ATP by radiometric analysis
[10] = target: Protein-tyrosine kinase 2-beta (Homo sapiens, UniProt Q14289); experiment: Inhibition of recombinant human full length PYK2 using poly(Glu, Tyr) 4:1 as substrate incubated for 40 mins in presence of [gamma33P]ATP by radiometric scintillation counting analysis
SRSF protein kinase 2 = SRSF protein kinase 2 (Homo sapiens, UniProt P78362); experiment: Inhibition of recombinant human SRPK2 (46 to end residues) using RSRSRSRSRSRSRSR as substrate incubated for 40 mins in presence of [gamma33P]ATP by radiometric scintillation counting analysis
[11] = target: Homeodomain-interacting protein kinase 4 (Homo sapiens, UniProt Q8NE63); experiment: Inhibition of human recombinant full length HIPK4 using RRRFRPASPLRGP as substrate after 40 mins by [gamma-33ATP] radiometric assay
[12] = target: Mitogen-activated protein kinase 8 (Homo sapiens, UniProt P45983); experiment: Inhibition of recombinant full length human JNK1alpha1 using ATF2 as substrate after 40 mins by [gamma-33ATP] by radiometric scintillation counting analysis
[13] = target: Mitogen-activated protein kinase kinase kinase 2 (Homo sapiens, UniProt Q9Y2U5); experiment: Inhibition of recombinant full length human MEKK2 using myelin basic protein as substrate incubated for 40 mins in presence of [gamma-33ATP by radiometric scintillation counting analysis
[14] = target: Serine/threonine-protein kinase BRSK1 (Homo sapiens, UniProt Q8TDC3); experiment: Inhibition of recombinant human BRSK1 ( 2 to end residues) using KKKVSRSGLYRSP substrate incubated for 40 mins in presence of [gamma-33ATP] by radiometric scintillation counting analysis
[15] = target: Phosphorylase b kinase gamma catalytic chain, skeletal muscle/heart isoform (Homo sapiens, UniProt Q16816); experiment: Inhibition of recombinant full-length human PhKgamma1 using KKLNRTLSFAEPG as substrate incubated for 40 mins in presence of [gamma33P]ATP by radiometric scintillation counting analysis
Chain of Phosphorylase b kinase gamma catalytic chain, skeletal muscle/heart isoform (Q16816 whole entry, canonical isoform): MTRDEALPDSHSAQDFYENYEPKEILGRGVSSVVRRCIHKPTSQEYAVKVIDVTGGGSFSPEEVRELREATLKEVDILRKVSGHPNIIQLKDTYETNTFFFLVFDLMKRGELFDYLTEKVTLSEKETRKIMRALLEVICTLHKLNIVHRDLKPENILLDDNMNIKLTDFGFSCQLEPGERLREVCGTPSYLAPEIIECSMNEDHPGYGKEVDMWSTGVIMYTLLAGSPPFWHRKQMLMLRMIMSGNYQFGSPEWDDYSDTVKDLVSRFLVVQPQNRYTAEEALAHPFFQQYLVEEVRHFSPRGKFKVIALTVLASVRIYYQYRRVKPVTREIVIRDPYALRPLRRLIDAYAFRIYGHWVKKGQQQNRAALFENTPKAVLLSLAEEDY

[16] = target: Glycogen synthase kinase-3 beta (Homo sapiens, UniProt P49841); experiment: Inhibition of human GSK-3beta H350L mutant (2 to end residues) using YRRAAVPPSPSLSR as substrate after 40 mins by [gamma-33ATP] radiometric assay
[17] = target: Platelet-derived growth factor receptor alpha (Homo sapiens, UniProt P16234, D842V); experiment: Inhibition of human PDGFRalpha D842V mutant (550 to end residues) using GGMEDIYFEFMGG as substrate measured after 40 mins in presence of [gamma33P]ATP by radiometric scintillation counting analysis
[18] = target: Beta-adrenergic receptor kinase 1 (Homo sapiens, UniProt P25098); experiment: Inhibition of recombinant full length human GRK2 using casein as substrate after 40 mins in presence of [gamma-33ATP] by radiometric scintillation counting analysis
[19] = target: Mitogen-activated protein kinase 13 (Homo sapiens, UniProt O15264); experiment: Inhibition of recombinant human full length SAPK4 using myelin basic protein as substrate incubated for 40 mins in presence of [gamma33P]ATP by radiometric scintillation counting analysis
[20] = target: MAP kinase-interacting serine/threonine-protein kinase 2 (Homo sapiens, UniProt Q9HBH9); experiment: Inhibition of recombinant full length human MNK2 using myelin basic protein as substrate incubated for 40 mins in presence of [gamma-33ATP by radiometric scintillation counting analysis
Chain of MAP kinase-interacting serine/threonine-protein kinase 2 (Q9HBH9 whole entry): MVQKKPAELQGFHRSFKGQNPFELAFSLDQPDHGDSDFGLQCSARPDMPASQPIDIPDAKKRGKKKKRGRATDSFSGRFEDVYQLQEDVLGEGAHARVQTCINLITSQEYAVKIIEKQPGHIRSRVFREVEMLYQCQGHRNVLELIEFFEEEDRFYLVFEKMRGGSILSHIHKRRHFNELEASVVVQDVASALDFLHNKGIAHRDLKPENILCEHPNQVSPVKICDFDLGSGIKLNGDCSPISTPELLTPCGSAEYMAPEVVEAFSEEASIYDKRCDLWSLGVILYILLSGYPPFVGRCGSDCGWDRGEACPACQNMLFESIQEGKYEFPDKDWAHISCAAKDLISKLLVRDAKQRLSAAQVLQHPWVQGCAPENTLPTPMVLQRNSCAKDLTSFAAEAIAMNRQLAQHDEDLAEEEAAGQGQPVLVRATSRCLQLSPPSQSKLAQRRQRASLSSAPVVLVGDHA

CN(C)c1ccc(C(=O)Nc2cccc(NC(=O)COc3ccc4c(=O)ccoc4c3)c2)cc1
IC50 (Ephrin type-A receptor 1): > 10 µM | IC50 [1]: > 10 µM | IC50 (Ephrin type-B receptor 4): > 10 µM | IC50 [2]: > 10 µM | IC50 [3]: > 10 µM | IC50 [4]: > 10 µM | IC50 (Insulin receptor): > 10 µM | IC50 [5]: > 10 µM | IC50 [6]: > 10 µM | IC50 [7]: > 10 µM | IC50 [8]: > 10 µM | IC50 [9]: > 10 µM | IC50 (Ephrin type-A receptor 5): > 10 µM | IC50 (LIM domain kinase 2): 46 nM | IC50 [10]: > 10 µM | IC50 (SRSF protein kinase 2): > 10 µM | IC50 [11]: > 10 µM | IC50 [12]: > 10 µM | IC50 [13]: > 10 µM | IC50 [14]: > 10 µM | IC50 [15]: > 10 µM | IC50 [16]: > 10 µM | IC50 [17]: > 10 µM | IC50 [18]: > 10 µM | IC50 [19]: > 10 µM | IC50 [20]: > 10 µM
